# According to patent US11149253B2, “Small molecule compound combination for reprogramming digestive tract derived epithelial cells to endodermal stem/progenitor cells, reprogramming method and application” (INSTITUE OF TRANSFUSION MEDICINE, ACADEMY OF MILITARY …, priority 2016, dated 2021):
# Legend:
# [1] = tested on: human gastric epithelial cells (hGECs); experiment: Reprogramming of human gastric epithelial cells (hGECs) to induced endodermal progenitor cells (hiEndoPCs); clonal formation efficiency; assay type: cell-based; conditions: aGSEMFs supporting cells; for clonal formation efficiency when the compound was removed from 8M: removed one by one from 8 small molecule compounds (8M), day 15; for clonal formation efficiency when the compound was removed from BBRS: removed one by one from BBRS combination
# Experimental: 1. Proliferation of the initiating cells: Primary isolated human gastric epithelial cells (hGECs) or duodenal epithelial cells (hDECs) were used as initiating cells, and cultured in Kubta medium (prepared according to the literature, literature source: Kubota, H., and Reid, L. M. (2000). Clonogenic hepatoblasts, common precursors for hepatocytic and biliary lineages, are lacking classical major histocompatibility complex class I antigen. Proc. Natl. Acad. Sci. USA 97, 12132-12137) at 37° C. in a 5% CO2 incubator for 4-5 days, and the initiating cells were expanded.
# 2. Preparation of trophoblast cells: adult human gastric subepithelial myofibroblasts (aGSEMFs, the cells were obtained by separation of gastric tissue matrix layers, frozen in large quantities after culture and proliferation, and resuscitated in advance when necessary) as trophoblast cells were treated with mitomycin-C (10 μg/mL, for the purpose of losing mitosis of trophoblast cells) for 2-3 hours, washed with PBS for 3-4 times, the cells were digested by TrypLE enzyme, and then the cells were washed;
# 3. When human gastric epithelial cells (hGECs) or duodenal epithelial cells (hDECs) were cultured until day 5-6, the treated gastric subepithelial myofibroblasts were added at a suitable density (generally, density of 1-3×10^5 per square centimeter) to human gastric epithelial cells (hGECs) or duodenal epithelial cells (hDECs) being cultured, and placed at 37° C. in a 5% CO2 incubator overnight (12-16 hours);
# 4. Reprogramming culture: on the second day after the addition of gastric subepithelial myofibroblasts, the medium was changed to 8M reprogramming medium, and changed every 2-3 days, and continuous observation was performed. Generally, induced endodermal progenitor cells (hiEndoPCs) were obtained after culturing for 1 week or 2 weeks more (7-15 days).
# 1. Calculation of the total number of clones.
# 2. Calculation of the area of different clones using the microscope graticule: the area of each microscope microlattice was 0.0625 mm^2, and the number of lattices occupied by the clone multiplied by 0.0625 mm^2 was the area of each clone.
# 3. The evaluation of the efficiency of reprogramming is proformed by colligating number of clones and the area of the clones.
# Since the clonal morphology produced on day 15 of reprogramming was most typical (FIGS. 8E and 8F), colony formation efficiency was usually calculated at this time point. However, the growth rate of clones was faster from day 7 to day 15, and many clones were fused together to form a large clone upon the time point for calculation (FIG. 8B), so the number of clones was less upon calculation, but the total area was increasing. In order to reflect the reprogramming effect more objectively, the present experiment colligated the total number of clones and the number of clones and clone area under different areas, as the calculation method of reprogramming efficiency. Calculation of the area of different clones using the microscope graticule: the area of each microscope microlattice was 0.0625 mm^2, and the number of lattices occupied by the clone multiplied by 0.0625 mm^2 was the area of each clone. The calculation method for different sizes of cloned areas was shown in FIG. 9, and the calculation results were shown in Table 4.
# 1) The trophoblast cells screened in the second part were used as the supporting cells, and the small molecules were removed one by one based on the culture conditions for above-mentioned 8 small molecule compounds (8M), and the indispensable small molecules were first screened.
# 2) Based on the small molecule compound combinations screened in the step 1), the small molecule compounds were successively removed one by one so that the best small molecule compound combination (with highest reprogramming efficiency) and the combination with fewest small molecule compounds (guaranteed for the formation of the clone) were finally found. […]
# hiEndoPCs-Pans = experiment: C-peptide release of hiEndoPC-derived pancreatic cells (ELISA); assay type: cell-based, human; conditions: insulin secretion promoter stimulation of hiEndoPCs-Pans
# Experimental: 2. The adhered cells were induced to differentiate to the pancreas according to four stages.
# 2.1 MCDB 131 medium (purchased from Gibco)+1.5 g/L of sodium bicarbonate+2 mM (concentration) 2 mM of Glutamax (Glutamine)+10 mM of final glucose concentration (glucose)+2% of BSA (bovine serum albumin)+0.25 mM of ascorbic acid (vitamin C)+50 ng/mL of FGF7 (fibroblast growth factor 7)+0.25 μM of SANT-1+1 μM of retinoic acid (RA)+100 nM of LDN193189+1:200 ITS-X (insulin-Transferrin-selenium-ethanolamine complex solution)+200 nM TPB, cultured for 2 days.
# 2.2 MCDB 131 medium+1.5 g/L of sodium bicarbonate+2 mM of Glutamax+10 mM of final glucose concentration+2% of BSA+0.25 mM of ascorbic acid+2 ng/mL of FGF7+0.25 μM of SANT-1+0.1 μM of retinoic acid+200 nM of LDN193189+1:200 ITS-X+100 nM of TPB, cultured for 2 days. […]
# 13. The OD value was measured at a wavelength of 450 nm on a microplate reader within 30 minutes, and the results were calculated.
compound,measurement,setting,value
COC(=O)C1=C(C)NC(C)=C([N+](=O)[O-])C1c1ccccc1C(F)(F)F (stereo not shown) [Bay K 8644],clonal formation efficiency when the compound was removed from 8M,[1],obviously decreased
same,clonal formation efficiency when the compound was removed from BBRS,[1],significantly decreased
COc1cc2nc(N3CCCN(C)CC3)nc(NC3CCN(Cc4ccccc4)CC3)c2cc1OC [Bix01294],clonal formation efficiency when the compound was removed from 8M,[1],obviously decreased
same,clonal formation efficiency when the compound was removed from BBRS,[1],significantly decreased
[Cl-].[K+] [KCL],release of C peptide,hiEndoPCs-Pans,significantly increased
O=C(NOC[C@H](O)CO)c1ccc(F)c(F)c1Nc1ccc(I)cc1F [PD0325901],clonal formation efficiency when the compound was removed from 8M,[1],increased
O=C(O)/C=C(/CCc1ccc(Cl)cc1)c1ccccc1 [PS48],clonal formation efficiency when the compound was removed from 8M,[1],increased
O=C(O)C(Cc1c[nH]c2ccccc12)N1C(=O)c2ccccc2C1=O (stereo not shown) [RG108],clonal formation efficiency when the compound was removed from 8M,[1],obviously decreased
same,clonal formation efficiency when the compound was removed from BBRS,[1],significantly decreased
NC(=O)c1ccc(-c2nc(-c3ccc4c(c3)OCO4)c(-c3ccccn3)[nH]2)cc1 [SB431542],clonal formation efficiency compared with BBRS,[1]; SB431542 as basis,not as good as the optimal combination of BBRS
same,clone formation with the fewest small molecules,[1]; SB431542 as basis,capable for forming the clones
same,clonal formation efficiency when the compound was removed from 8M,[1],clones were not produced
same,clonal formation efficiency when the compound was removed from BBRS,[1],no clones were formed
CCCCNC(=O)NS(=O)(=O)c1ccc(C)cc1 [Tolbutamiden],release of C peptide,hiEndoPCs-Pans,significantly increased
"CCCC(CCC)C(=O)O [VPA, Valproic Acid]",clonal formation efficiency when the compound was removed from 8M,[1],did not change significantly
Fructose diphosphate [FBP],clonal formation efficiency when the compound was removed from 8M,[1],increased
